The source of these data is ChEMBL document CHEMBL5291721, “A preclinical secondary pharmacology resource illuminates target-adverse drug reaction associations of marketed drugs” (Nat Commun, 2023).

Test [1] deals with Beta-1 adrenergic receptor (Homo sapiens, UniProt P08588). Type of test: functional.
In test [2] the target is 5-hydroxytryptamine receptor 2B (Homo sapiens, UniProt P41595). The format is functional, cell-based.
Test [3] has as its target T1, 5-hydroxytryptamine receptor 2C (Homo sapiens, UniProt P28335).
T1 sequence (P28335 whole entry): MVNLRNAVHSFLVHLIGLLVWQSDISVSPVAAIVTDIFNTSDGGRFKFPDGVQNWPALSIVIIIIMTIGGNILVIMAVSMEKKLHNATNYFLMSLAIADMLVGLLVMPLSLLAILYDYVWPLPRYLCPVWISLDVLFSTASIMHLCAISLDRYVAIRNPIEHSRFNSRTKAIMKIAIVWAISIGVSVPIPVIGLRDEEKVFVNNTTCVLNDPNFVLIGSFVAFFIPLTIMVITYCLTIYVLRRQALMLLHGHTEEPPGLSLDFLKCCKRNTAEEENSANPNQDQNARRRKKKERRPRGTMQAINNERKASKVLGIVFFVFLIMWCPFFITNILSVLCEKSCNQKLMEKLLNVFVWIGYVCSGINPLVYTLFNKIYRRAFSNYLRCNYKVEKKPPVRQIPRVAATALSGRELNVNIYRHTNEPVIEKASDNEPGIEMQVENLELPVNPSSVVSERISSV

The target in test [4] is Histamine H2 receptor (Homo sapiens, UniProt P25021). Type of test: functional, cell-based.
Test [5] deals with Histamine H3 receptor (Homo sapiens, UniProt Q9Y5N1).
In test [6] the target is T2, Neuropeptide Y receptor type 1 (Homo sapiens, UniProt P25929).
T2 sequence (P25929 whole entry): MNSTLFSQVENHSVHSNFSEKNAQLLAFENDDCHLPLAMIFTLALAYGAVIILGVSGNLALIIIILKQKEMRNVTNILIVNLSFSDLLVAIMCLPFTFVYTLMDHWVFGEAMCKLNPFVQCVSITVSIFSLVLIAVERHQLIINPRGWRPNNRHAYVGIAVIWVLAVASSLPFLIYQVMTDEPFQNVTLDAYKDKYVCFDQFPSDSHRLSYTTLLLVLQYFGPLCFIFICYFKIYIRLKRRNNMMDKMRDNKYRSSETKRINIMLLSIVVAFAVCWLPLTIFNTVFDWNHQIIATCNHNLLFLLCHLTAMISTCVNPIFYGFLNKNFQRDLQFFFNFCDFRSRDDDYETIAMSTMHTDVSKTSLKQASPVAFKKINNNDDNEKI

In test [7] the target is cGMP-inhibited 3',5'-cyclic phosphodiesterase 3A (Homo sapiens, UniProt Q14432). The format is functional.
Test [8] has as its target Sodium-dependent serotonin transporter (Homo sapiens, UniProt P31645).
Test [9] addresses T3, Gamma-aminobutyric acid receptor subunit alpha-1 (Rattus norvegicus, UniProt P62813).
For test [10], the target named is Growth hormone secretagogue receptor type 1 (Homo sapiens, UniProt Q92847).
Test [11] addresses T3, Gamma-aminobutyric acid receptor subunit alpha-1. The format is functional.
Test [12] concerns the target T4, Alpha-2A adrenergic receptor (Homo sapiens, UniProt P08913).
T4 sequence (P08913 whole entry): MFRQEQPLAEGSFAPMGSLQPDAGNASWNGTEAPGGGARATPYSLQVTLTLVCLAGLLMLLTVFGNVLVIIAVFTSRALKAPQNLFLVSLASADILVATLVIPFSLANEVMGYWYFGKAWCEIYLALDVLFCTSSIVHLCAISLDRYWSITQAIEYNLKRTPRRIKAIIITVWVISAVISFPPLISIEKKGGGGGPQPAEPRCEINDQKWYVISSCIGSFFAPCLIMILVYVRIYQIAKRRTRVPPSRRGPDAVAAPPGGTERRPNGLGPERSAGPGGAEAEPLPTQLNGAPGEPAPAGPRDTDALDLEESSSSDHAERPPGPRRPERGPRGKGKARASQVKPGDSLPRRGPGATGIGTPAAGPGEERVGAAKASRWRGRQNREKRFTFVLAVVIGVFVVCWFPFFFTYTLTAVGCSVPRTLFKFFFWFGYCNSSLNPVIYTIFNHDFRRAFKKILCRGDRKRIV
Type of test: functional, cell-based.

The target of test [13] is Motilin receptor (Homo sapiens, UniProt O43193).
Test [14] has as its target Beta-2 adrenergic receptor (Homo sapiens, UniProt P07550).
Test [15] concerns the target T5, Muscarinic acetylcholine receptor M1 (Homo sapiens, UniProt P11229).
T5 sequence (P11229 whole entry): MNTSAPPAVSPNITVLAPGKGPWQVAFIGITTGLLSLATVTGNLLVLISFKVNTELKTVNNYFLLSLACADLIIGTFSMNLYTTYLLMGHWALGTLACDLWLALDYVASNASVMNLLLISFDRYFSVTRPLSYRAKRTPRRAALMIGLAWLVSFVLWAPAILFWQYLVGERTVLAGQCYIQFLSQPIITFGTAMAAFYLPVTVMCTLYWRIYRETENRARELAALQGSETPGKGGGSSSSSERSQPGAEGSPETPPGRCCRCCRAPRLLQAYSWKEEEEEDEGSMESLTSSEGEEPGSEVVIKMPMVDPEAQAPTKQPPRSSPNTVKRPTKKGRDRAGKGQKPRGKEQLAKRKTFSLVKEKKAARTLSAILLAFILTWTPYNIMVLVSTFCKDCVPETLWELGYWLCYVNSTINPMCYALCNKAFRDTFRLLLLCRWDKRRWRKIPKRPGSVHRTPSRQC
The format is functional.

Test [16] addresses Adenosine receptor A2a (Homo sapiens, UniProt P29274).
For test [17], the target named is 5-hydroxytryptamine receptor 2A (Homo sapiens, UniProt P28223). The format is functional, cell-based.
For test [18], the target named is Sodium-dependent dopamine transporter (Homo sapiens, UniProt Q01959).
The target of test [19] is Sodium-dependent noradrenaline transporter (Homo sapiens, UniProt P23975).
The target of test [20] is Glutamate receptor ionotropic, NMDA 1 (Rattus norvegicus, UniProt P35439).
Also: assay procedure not described here.

cGMP-inhibited 3',5'-cyclic phosphodiesterase 3A, sequence (Q14432 whole entry): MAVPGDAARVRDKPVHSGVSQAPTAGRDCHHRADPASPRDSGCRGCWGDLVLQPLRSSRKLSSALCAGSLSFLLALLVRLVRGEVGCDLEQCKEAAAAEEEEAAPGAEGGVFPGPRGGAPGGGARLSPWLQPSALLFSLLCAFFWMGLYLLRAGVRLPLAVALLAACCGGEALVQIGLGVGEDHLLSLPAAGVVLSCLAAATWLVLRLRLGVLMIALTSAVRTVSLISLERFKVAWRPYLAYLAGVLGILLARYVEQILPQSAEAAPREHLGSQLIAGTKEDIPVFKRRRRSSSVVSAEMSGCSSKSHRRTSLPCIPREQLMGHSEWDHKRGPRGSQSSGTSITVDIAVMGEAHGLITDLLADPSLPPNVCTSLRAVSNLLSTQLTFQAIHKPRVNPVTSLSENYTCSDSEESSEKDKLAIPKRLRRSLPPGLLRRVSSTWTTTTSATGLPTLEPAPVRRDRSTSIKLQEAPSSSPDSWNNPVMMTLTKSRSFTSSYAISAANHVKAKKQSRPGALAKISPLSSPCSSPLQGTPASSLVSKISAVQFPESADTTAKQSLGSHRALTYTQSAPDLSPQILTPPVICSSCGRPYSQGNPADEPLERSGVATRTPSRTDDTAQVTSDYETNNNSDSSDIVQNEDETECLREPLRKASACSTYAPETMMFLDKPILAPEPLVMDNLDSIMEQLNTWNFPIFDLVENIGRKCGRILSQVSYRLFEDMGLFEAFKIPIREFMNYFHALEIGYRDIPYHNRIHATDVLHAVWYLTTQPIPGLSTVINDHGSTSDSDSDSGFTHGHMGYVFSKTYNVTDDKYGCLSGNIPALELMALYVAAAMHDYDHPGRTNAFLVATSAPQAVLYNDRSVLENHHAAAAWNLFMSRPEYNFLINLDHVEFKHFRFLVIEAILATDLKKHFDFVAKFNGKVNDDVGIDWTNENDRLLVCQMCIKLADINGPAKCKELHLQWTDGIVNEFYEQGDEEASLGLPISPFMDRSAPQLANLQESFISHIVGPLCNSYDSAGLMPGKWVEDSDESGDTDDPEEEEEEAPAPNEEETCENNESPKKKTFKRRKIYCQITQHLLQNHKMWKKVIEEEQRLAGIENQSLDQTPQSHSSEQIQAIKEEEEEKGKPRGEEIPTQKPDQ
Beta-2 adrenergic receptor, sequence (P07550 whole entry): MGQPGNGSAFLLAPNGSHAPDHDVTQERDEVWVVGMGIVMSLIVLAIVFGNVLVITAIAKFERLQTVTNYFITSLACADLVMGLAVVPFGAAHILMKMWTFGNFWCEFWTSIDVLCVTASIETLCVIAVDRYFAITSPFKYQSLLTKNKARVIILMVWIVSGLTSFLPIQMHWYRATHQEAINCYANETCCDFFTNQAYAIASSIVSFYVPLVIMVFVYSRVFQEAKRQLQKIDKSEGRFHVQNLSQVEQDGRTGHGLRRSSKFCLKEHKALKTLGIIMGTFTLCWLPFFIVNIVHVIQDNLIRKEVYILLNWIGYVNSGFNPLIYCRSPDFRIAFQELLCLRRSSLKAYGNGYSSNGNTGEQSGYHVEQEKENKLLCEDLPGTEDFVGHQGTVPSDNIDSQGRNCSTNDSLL
Histamine H2 receptor, sequence (P25021 whole entry): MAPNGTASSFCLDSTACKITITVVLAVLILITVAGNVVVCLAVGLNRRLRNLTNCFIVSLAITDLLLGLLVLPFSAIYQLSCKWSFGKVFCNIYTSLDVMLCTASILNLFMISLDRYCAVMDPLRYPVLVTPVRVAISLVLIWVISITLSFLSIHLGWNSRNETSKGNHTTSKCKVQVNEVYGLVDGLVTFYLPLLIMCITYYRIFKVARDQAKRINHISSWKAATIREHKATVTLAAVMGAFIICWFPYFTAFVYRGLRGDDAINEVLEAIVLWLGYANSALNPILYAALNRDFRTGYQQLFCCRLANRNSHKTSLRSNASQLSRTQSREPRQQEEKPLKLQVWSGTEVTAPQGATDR
Adenosine receptor A2a, sequence (P29274 whole entry): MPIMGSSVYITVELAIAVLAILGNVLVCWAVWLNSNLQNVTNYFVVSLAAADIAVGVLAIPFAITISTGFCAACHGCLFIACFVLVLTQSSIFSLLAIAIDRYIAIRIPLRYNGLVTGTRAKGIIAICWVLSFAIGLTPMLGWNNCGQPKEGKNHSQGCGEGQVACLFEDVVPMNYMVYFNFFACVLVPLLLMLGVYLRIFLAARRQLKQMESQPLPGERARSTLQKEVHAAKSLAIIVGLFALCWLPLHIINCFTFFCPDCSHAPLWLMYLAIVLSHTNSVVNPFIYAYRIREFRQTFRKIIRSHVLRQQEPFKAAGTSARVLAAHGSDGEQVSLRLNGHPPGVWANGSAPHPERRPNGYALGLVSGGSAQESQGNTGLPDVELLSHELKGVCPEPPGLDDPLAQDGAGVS
Sodium-dependent serotonin transporter, sequence (P31645 whole entry): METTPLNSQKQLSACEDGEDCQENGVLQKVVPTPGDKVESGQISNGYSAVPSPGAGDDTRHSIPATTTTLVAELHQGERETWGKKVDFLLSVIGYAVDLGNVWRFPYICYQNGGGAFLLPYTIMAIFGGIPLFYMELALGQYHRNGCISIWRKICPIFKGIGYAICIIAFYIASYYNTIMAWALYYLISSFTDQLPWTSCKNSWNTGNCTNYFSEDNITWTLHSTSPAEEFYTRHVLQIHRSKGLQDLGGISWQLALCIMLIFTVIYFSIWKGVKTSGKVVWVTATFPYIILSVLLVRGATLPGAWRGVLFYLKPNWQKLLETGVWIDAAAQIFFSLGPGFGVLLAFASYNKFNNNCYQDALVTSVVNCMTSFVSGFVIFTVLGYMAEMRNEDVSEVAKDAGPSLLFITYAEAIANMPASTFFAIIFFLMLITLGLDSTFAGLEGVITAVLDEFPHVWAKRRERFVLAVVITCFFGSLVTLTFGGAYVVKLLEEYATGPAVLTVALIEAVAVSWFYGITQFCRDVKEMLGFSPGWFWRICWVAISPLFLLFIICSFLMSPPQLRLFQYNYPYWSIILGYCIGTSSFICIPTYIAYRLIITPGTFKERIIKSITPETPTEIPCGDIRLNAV
5-hydroxytryptamine receptor 2A, sequence (P28223 whole entry): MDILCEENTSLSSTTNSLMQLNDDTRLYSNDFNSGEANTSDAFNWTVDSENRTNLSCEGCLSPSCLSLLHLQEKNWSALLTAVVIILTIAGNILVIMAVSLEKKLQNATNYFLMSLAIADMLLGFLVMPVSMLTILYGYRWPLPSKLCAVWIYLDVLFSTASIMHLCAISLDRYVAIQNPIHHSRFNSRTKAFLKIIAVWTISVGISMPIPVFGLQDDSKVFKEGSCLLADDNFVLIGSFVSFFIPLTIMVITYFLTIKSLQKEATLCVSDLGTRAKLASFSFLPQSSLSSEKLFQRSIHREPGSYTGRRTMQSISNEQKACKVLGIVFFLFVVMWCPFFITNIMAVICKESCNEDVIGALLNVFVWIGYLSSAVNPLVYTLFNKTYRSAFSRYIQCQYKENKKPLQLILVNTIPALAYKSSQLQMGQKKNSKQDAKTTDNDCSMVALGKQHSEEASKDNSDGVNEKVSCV
Sodium-dependent dopamine transporter, sequence (Q01959 whole entry): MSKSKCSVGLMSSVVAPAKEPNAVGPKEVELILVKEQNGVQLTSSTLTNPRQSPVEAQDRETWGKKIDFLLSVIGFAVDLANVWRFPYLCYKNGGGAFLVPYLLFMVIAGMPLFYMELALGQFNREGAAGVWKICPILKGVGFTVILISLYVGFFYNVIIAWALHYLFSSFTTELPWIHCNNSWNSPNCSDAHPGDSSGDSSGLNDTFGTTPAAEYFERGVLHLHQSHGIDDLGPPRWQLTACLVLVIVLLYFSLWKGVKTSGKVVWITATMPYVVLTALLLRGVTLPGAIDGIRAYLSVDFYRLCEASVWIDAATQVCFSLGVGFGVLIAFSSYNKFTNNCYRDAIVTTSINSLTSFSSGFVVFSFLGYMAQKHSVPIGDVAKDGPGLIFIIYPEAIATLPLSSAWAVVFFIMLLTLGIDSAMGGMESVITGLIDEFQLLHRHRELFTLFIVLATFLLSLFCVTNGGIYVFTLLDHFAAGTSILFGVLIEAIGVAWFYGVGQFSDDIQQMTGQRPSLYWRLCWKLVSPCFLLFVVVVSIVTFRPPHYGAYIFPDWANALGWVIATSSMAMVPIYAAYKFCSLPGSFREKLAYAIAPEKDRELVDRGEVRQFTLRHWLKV
Histamine H3 receptor, sequence (Q9Y5N1 whole entry): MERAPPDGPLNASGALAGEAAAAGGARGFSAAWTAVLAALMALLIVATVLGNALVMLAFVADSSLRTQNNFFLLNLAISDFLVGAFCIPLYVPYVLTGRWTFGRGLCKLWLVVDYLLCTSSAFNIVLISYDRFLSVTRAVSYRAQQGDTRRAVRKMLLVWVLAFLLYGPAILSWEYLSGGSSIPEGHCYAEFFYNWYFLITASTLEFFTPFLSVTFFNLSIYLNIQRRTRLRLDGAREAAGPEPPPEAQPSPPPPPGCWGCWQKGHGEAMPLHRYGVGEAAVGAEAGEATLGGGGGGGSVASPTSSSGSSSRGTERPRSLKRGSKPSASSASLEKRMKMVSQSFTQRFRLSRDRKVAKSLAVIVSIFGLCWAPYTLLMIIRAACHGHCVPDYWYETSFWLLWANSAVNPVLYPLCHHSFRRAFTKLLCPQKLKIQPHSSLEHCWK
T3 sequence (P62813 whole entry): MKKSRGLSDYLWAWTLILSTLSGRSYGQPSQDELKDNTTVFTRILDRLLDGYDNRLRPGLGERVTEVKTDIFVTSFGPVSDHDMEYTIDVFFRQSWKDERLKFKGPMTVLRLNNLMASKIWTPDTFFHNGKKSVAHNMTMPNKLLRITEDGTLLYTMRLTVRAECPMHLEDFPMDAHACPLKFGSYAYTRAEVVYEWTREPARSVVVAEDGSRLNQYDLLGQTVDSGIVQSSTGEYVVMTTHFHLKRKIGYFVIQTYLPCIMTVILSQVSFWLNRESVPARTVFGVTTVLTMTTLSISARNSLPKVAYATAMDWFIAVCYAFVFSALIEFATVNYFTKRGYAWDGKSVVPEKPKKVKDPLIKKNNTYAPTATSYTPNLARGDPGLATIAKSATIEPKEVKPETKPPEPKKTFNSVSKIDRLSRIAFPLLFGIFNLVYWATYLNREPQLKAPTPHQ

By AC50 is commonly meant the concentration giving half of the maximal activity seen. A high value points to activity only at high concentration. For `CC(=O)NS(=O)(=O)c1ccc(N)cc1` [SULFACETAMIDE], the AC50 in test [1] was more than 10 µM; in test [2], more than 10 µM; in test [3], more than 30 µM; in [4], more than 10 µM; in test [5], more than 10 µM; in test [6], more than 10 µM. Moreover, the AC50 in test [7] is more than 30 µM; in test [8], more than 10 µM; in test [9], more than 10 µM; in test [10], more than 10 µM; in test [11], more than 10 µM; in test [12], more than 10 µM. For the same compound, the AC50 in [13], in test [14], in test [15], in test [16], in test [17] and in test [18] was more than 10 µM each time. Moreover, the AC50 in test [19] and in [20] was more than 10 µM throughout.

With `CC(Cc1ccccc1)NCCC(c1ccccc1)c1ccccc1` (stereo unspecified) [PRENYLAMINE], the AC50 was 6.8 µM in test [1]; more than 10 µM in [2]; more than 30 µM in test [3]; more than 30 µM in [4]; more than 10 µM in [5]; more than 30 µM in [6]. Besides, the AC50 in test [7] is more than 30 µM; in [8] it was 17.6 µM; in test [9], more than 10 µM; in [10], 3 µM; in test [11], more than 10 µM; in [12], more than 10 µM. Besides, the AC50 was more than 10 µM in [13]; 3.5 µM in test [14]; more than 10 µM in test [15]; more than 30 µM in test [16]; more than 30 µM in [17]; 4.7 µM in [18]. The AC50 in test [19] was 2.3 µM; in test [20], more than 10 µM.

In the case of `C#CC1(OC(N)=O)CCCCC1` [ETHINAMATE], the AC50 is more than 10 µM in [1]; more than 10 µM in test [2]; more than 30 µM in test [3]; more than 10 µM in test [4]; more than 10 µM in test [5]; more than 10 µM in test [6]. The AC50 in [7] is more than 30 µM; in test [8], more than 10 µM; in [9] it was more than 10 µM; in [10], more than 10 µM; in [11], more than 10 µM; in test [12] it was more than 10 µM. For the same compound, the AC50 in test [13], in test [14], in test [15], in test [16], in test [17] and in test [18] was more than 10 µM throughout. Besides, the AC50 in test [19] and in test [20] was more than 10 µM each time.

As to `CC1=CC(=O)c2ccccc2C1=O` [MENADIONE], the AC50 in test [1] is more than 10 µM; in test [2], more than 10 µM; in test [3] it was more than 30 µM; in test [4], more than 30 µM; in test [6] it was more than 10 µM; in test [7] it was more than 30 µM. The AC50 in [8], in test [9], in [10], in test [11], in [12] and in test [13] was more than 10 µM each time. The AC50 in test [14] was more than 10 µM; in [15] it was more than 30 µM; in test [16], more than 30 µM; in [17], more than 10 µM; in [18], more than 10 µM; in test [19], more than 10 µM. Moreover, the AC50 in test [20] is more than 10 µM.

For the compound `CC(=O)OCC(=O)[C@@]12OC3(CCCC3)O[C@@H]1C[C@H]1[C@@H]3CCC4=CC(=O)C=C[C@]4(C)[C@@]3(F)[C@@H](O)C[C@@]12C` [AMCINONIDE], the AC50 in test [1] is more than 10 µM; in [2], more than 10 µM; in test [3] it was more than 30 µM; in [4], more than 10 µM; in test [6], more than 10 µM; in test [7], more than 30 µM. The AC50 in test [8], in test [9], in [10], in test [11], in test [12] and in test [13] was more than 10 µM each time. Moreover, the AC50 in [14], in [15], in test [16], in [17], in [18] and in test [19] was more than 10 µM throughout. In addition, the AC50 in test [20] is more than 10 µM.

`COC(=O)C1=C(C)NC(C)=C(C(=O)OC(C)C)C1c1cccc2nonc12` (stereo unspecified) [ISRADIPINE]: the AC50 was more than 10 µM in test [1]; more than 10 µM in test [2]; more than 30 µM in test [3]; more than 30 µM in [4]; more than 30 µM in test [6]; 23 µM in [7]. The AC50 is more than 30 µM in test [8]; more than 10 µM in test [9]; more than 30 µM in test [10]; more than 10 µM in test [11]; more than 10 µM in [12]; 14.7 µM in [13]. Moreover, the AC50 in test [14] is more than 10 µM; in test [15], more than 30 µM; in test [16] it was more than 30 µM; in test [17], more than 10 µM; in [18], 26 µM; in [19], more than 30 µM. For the same compound, the AC50 in test [20] is more than 10 µM.

For the compound `O=C(O)CCCc1ccccc1` [PHENYLBUTANOIC ACID], the AC50 in test [1] was more than 10 µM; in test [2] it was more than 30 µM; in test [3], more than 30 µM; in [5] it was more than 10 µM; in test [6], more than 10 µM; in test [7], more than 30 µM. Besides, the AC50 in test [8] was more than 10 µM; in test [9], more than 30 µM; in [10], more than 10 µM; in [11] it was more than 30 µM; in test [12], more than 30 µM; in test [13] it was more than 10 µM. Also, the AC50 in test [14] was more than 10 µM; in test [15], more than 30 µM; in [16], more than 10 µM; in test [17], more than 30 µM; in [18], 3.2 µM; in test [19], more than 10 µM. In test [20], this compound showed an AC50 of more than 30 µM.
